Source: article PMC5691054, “An unexpected protein interaction promotes drug resistance in leukemia” (Nature Communications, 2017)
“Also recorded” adds a separate entry of the source. Where no end group is shown, it is not given here. The star is where a group is joined. Biotin = O=C1N[C@H]2[C@H](CS[C@H]2CCCCC(=O)*)N1; FAM = fluorescein

Assays:
[1] = test system: ABCC4 plasma membrane localization in HEK293 cells expressing MPP1 and GFP-ABCC4; test: ABCC4 plasma membrane localization (confocal microscopy); format: cell-based, Human
Description: Peptides containing or lacking the ABCC4-PDZ motif were fused with the cell penetrating HIV-TAT peptide. These peptides were tested for their effect on ABCC4 plasma membrane localization. HEK293 cells were transfected with MPP1 and GFP-ABCC4 and the ER protein, calreticulin. The plasma membrane was counter-stained with wheat-germ-agglutinin (WGA) labeled with Alexa647 after treatment with either ABCC4-PDZ or ABCC4ΔC peptide.
HEK293 cells were seeded on chambered coverglass slides (LAB-TEK) 48 h before transfection with plasmid DNA (250 ng) encoding pAc-GFP-ABCC4 or ABCC4ΔC and pCal plasmid encoding the ER resident protein calreticulin conjugated to RFP (Origene). Transfection was performed using Lipofectamine 2000 as per the manufacturer’s instructions. Immediately prior to visualizing cells, cells were counterstained with the plasma membrane marker wheat-germ agglutinin (WGA) conjugated to Alexa-647 (Invitrogen). All confocal microscopy images were acquired on a 3i Marianas system configured with an Yokagowa CSU-X spinning disk confocal microscope utilizing a ×63 Zeiss objective, using the 488 (GFP), 561 (RFP), and 660 (far red) laser lines.

[2] = test system: murine hematopoietic progenitor cells (HPC); test: Hematopoietic progenitor cell serial replating in methylcellulose; details: HPC transduced with MPP1; cell penetrating peptide, fresh at each replating; n = 3
[3] = test system: HEK293 cells; test: 6MP cytotoxicity / drug resistance in transfected HEK293 cells; format: cell-based, Human; details: HEK293 co-expressing ABCC4 and MPP1; cell penetrating peptide (20 μM in methods; various amounts), 96 h, in words
Description: HEK293 cells transfected with ABCC4 or ABCC4ΔC in the presence or absence of MPP1, MO7e, and Meg01 cells were treated with 10 concentrations of 6MP, ranging from 1 to 1000 µM, for 96 h. Cell viability analysis was determined using CellTiter Glo (Promega). Where applicable, cell penetrating peptides conjugated to the PDZ-binding motif of ABCC4 (labeled either ABCC4-PDZ or ABCC4ΔC) were added to the cells at 20 μM. Media was changed daily and new ABCC4-PDZ/ABCC4ΔC peptide and 6MP was added. IC50 values were calculated using GraphPad Prism.

[4] = test system: MO7e cells; test: Cytarabine cytotoxicity in MO7e cells; format: cell-based, Human; details: in words
Description: MO7e cells were seeded at 1500 cells per well of a 96-well plate. Cells were then treated with Cytarabine at increasing concentrations ranging from 0.5 to 500 μM for 4 h in serum-free media. Cells were washed three times with PBS and replaced with fresh complete media for 68 h. Cell viability analysis was determined using CellTiter Glo. Where applicable, cells were treated with 10 nM Antimycin A. IC50 values were calculated using GraphPad Prism.

[5] = biological target: T1, MPP1 and ABCC4 protein interaction (Homo sapiens, UniProt Q00013); test: Competition of ABCC4 C-terminal peptides with MPP1–ABCC4 complex (GST-ABCC4-C100 pull-down, immunoblot); format: biochemical
T1 construct: For full-length expression of MPP1, the pTriX vector containing an N-terminal His tag was used to create the His-S-MPP1 fusion protein; made in house; host or cells: E. coli
T1 sequence (Q00013 1-466): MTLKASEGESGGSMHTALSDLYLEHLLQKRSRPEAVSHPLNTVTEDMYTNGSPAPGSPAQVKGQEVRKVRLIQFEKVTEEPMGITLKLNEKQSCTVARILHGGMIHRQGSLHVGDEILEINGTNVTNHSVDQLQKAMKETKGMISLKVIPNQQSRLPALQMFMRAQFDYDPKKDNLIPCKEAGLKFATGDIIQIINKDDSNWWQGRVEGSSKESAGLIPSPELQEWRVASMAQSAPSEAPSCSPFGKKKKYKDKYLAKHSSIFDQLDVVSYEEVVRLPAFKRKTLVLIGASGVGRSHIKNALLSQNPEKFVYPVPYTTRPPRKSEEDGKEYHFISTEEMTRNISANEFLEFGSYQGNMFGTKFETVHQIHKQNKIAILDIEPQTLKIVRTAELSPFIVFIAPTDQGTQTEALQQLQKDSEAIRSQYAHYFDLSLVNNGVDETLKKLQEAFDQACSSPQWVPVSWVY
Description: C-terminal peptides of ABCC4 containing the carboxyl-terminal 15 amino acids ([…]-COOH, ABCC4-PDZ) or carboxyl-terminal 11 amino acids lacking the PDZ-binding motif ([…]-COOH, ABCC4ΔC) conjugated to the cell penetrating peptide TAT ([…]) were chemically synthesized by the Hartwell Center for Bionformatics and Biotechnology at SJCRH. ABCC4 peptides (1–4 μM) were mixed with purified GST-ABCC4-C100 (50 nM) (Supplementary Fig. 10 ) before addition of His-S-MPP1 (3.6 nM) and allowed to mix for 2 h at 24 °C. The GST-ABCC4-C100 was immobilized on glutathione beads, and washed 3 times. Protein complexes were eluted from the beads, separated by SDS-PAGE, and immunoblotted with rabbit anti-MPP1.

[6] = test system: murine hematopoietic progenitor cells (HPC)
[7] = test system: MO7e cells; test: 6MP cytotoxicity in MO7e cells and CRISPR knock-outs; format: cell-based, Human
[8] = biological target: T2, His-S-MPP1 fusion protein (full-length MPP1) (UniProt Q00013 1-466); test: fluorescence polarisation; 100 nM FAM-ABCC4 incubated with various concentrations of full-length MPP1; estimated constant; details: both partners purified
T2 construct: MPP1 (p55), full length, expressed from the pTriX vector; the fragments of the same protein are numbered up to amino acid 466; also called purified MPP1; source: E. coli, purified (nickel column); not shown: His tag, N-terminal, kept
T2 sequence (looked up): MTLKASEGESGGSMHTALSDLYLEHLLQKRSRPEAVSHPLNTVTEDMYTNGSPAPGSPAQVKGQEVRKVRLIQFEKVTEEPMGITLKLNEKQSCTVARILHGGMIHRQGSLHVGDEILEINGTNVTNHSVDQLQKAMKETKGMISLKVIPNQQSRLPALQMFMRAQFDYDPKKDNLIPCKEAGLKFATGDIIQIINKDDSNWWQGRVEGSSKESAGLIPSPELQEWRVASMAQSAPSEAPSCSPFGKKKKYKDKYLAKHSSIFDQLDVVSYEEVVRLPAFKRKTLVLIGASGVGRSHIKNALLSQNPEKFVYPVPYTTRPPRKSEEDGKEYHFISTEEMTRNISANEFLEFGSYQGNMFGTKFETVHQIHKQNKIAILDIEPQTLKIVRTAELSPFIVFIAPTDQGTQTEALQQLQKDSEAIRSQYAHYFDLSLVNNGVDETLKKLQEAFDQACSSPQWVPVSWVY

[9] = biological target: T3, MPP1, endogenous in MO7e cells (human (endogenous in MO7e), UniProt Q00013 1-466); test: cell-based or functional assay
T3 sequence (looked up): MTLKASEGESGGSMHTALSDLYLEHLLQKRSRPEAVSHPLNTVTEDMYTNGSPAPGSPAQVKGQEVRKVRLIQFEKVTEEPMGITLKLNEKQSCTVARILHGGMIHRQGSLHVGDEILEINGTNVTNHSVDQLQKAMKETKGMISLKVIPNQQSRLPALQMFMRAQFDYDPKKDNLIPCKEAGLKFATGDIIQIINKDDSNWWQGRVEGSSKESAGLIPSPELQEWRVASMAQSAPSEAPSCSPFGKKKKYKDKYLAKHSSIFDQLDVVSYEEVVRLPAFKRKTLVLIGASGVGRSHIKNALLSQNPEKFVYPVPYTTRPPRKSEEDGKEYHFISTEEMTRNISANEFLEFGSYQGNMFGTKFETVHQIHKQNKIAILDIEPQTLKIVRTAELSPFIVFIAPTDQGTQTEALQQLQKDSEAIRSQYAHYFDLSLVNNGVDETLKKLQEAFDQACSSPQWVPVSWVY

[10] = biological target: T2, His-S-MPP1 fusion protein (full-length …); test: FRET or BRET; TR-FRET: various concentrations of B-ABCC4 with 5 nM Tb-anti-His, 50 nM AF488-streptavidin and 5 nM His-S-MPP1 in DPBS, 0.01% BSA, 1 mM DTT, 0.5% DMSO; one site total binding fit; details: both partners purified
[11] = biological target: T2, His-S-MPP1 fusion protein (full-length …); test: pull-down; competition: TAT-ABCC4 peptides (1–4 μM) mixed with GST-ABCC4-C100 (50 nM) before addition of His-S-MPP1 (3.6 nM), 2 h at 24 °C; GST-ABCC4-C100 immobilized on glutathione beads, washed 3 times; immunoblot with rabbit anti-MPP1; details: both partners purified

SNGQPSTLTIFETAL-OH [ABCC4-PDZ, carboxyl-terminal 15 amino acids of ABCC4 conjugated to the cell penetrating peptide TAT]
transfected cells exhibiting loss of ABCC4 at the plasma membrane ([1]; cell penetrating peptide (TAT fused; 10 μM in Supplementary Fig. 4), n = 20 fields of view): over 90% | effect on ABCC4 plasma membrane localization ([1]; in words, confocal microscopy): reduced the ABCC4 plasma membrane localization | effect on MPP1-driven methylcellulose replating [2]: suppressed methylcellulose replating | effect of peptide on 6MP IC50 [3]: dose-dependently suppressed the IC50 of 6MP with the highest dose almost completely reversing the salutary effect of MPP1 | effect of peptide on cytarabine sensitivity ([4]; MO7e lacking ABCC4): no additional sensitivity to cytarabine | effect of peptide on cytarabine sensitivity ([4]; MO7e, cytarabine 0.5–500 μM 4 h, then 68 h): sensitized to cytarabine cytotoxicity; also recorded: specifically sensitized MO7e cells to cytarabine | effect of co-treatment on IC50 for cytarabine ([4]; peer review file): reduce the IC50 for cytarabine | disruption of the MPP1 and ABCC4 protein interaction ([5]; in words, in vitro competition experiment): potently disrupted complex formation | greater affinity of MPP1 for ABCC4 vs. glycophorin c ([5]; suggested by the IC50 of ~300 nM): 15 fold | toxicity to normal hematopoietic progenitors [6]: not toxic to normal | effect of peptide on 6MP sensitivity ([7]; cell permeable peptide (10 μM), in words): sensitizes MO7e cells to 6MP | reduction of 6MP IC50 by peptide ([7]; cell permeable peptide (10 μM, Supplementary Fig. 5c)): 2.6 fold

B1: Fluorescein-conjugated C-terminal peptide of ABCC4 (FAM-TIFETAL-COOH) (peptide)
peptide: {FAM}-TIFETAL-OH
notes: ABCC4, human, C-terminal 7 amino acids with the PDZ motif ETAL; also called FAM-ABCC4; fluorescein-labeled ABCC4-PDZ motif peptide; source: synthetic peptide
Kd [8]: ~600 nM

B2: ABCC4, endogenous in MO7e cells (natural protein, human (endogenous in MO7e), UniProt O15439 1-1325, looked up)
chain: MLPVYQEVKPNPLQDANLCSRVFFWWLNPLFKIGHKRRLEEDDMYSVLPEDRSQHLGEELQGFWDKEVLRAENDAQKPSLTRAIIKCYWKSYLVLGIFTLIEESAKVIQPIFLGKIINYFENYDPMDSVALNTAYAYATVLTFCTLILAILHHLYFYHVQCAGMRLRVAMCHMIYRKALRLSNMAMGKTTTGQIVNLLSNDVNKFDQVTVFLHFLWAGPLQAIAVTALLWMEIGISCLAGMAVLIILLPLQSCFGKLFSSLRSKTATFTDARIRTMNEVITGIRIIKMYAWEKSFSNLITNLRKKEISKILRSSCLRGMNLASFFSASKIIVFVTFTTYVLLGSVITASRVFVAVTLYGAVRLTVTLFFPSAIERVSEAIVSIRRIQTFLLLDEISQRNRQLPSDGKKMVHVQDFTAFWDKASETPTLQGLSFTVRPGELLAVVGPVGAGKSSLLSAVLGELAPSHGLVSVHGRIAYVSQQPWVFSGTLRSNILFGKKYEKERYEKVIKACALKKDLQLLEDGDLTVIGDRGTTLSGGQKARVNLARAVYQDADIYLLDDPLSAVDAEVSRHLFELCICQILHEKITILVTHQLQYLKAASQILILKDGKMVQKGTYTEFLKSGIDFGSLLKKDNEESEQPPVPGTPTLRNRTFSESSVWSQQSSRPSLKDGALESQDTENVPVTLSEENRSEGKVGFQAYKNYFRAGAHWIVFIFLILLNTAAQVAYVLQDWWLSYWANKQSMLNVTVNGGGNVTEKLDLNWYLGIYSGLTVATVLFGIARSLLVFYVLVNSSQTLHNKMFESILKAPVLFFDRNPIGRILNRFSKDIGHLDDLLPLTFLDFIQTLLQVVGVVSVAVAVIPWIAIPLVPLGIIFIFLRRYFLETSRDVKRLESTTRSPVFSHLSSSLQGLWTIRAYKAEERCQELFDAHQDLHSEAWFLFLTTSRWFAVRLDAICAMFVIIVAFGSLILAKTLDAGQVGLALSYALTLMGMFQWCVRQSAEVENMMISVERVIEYTDLEKEAPWEYQKRPPPAWPHEGVIIFDNVNFMYSPGGPLVLKHLTALIKSQEKVGIVGRTGAGKSSLISALFRLSEPEGKIWIDKILTTEIGLHDLRKKMSIIPQEPVLFTGTMRKNLDPFNEHTDEELWNALQEVQLKETIEDLPGKMDTELAESGSNFSVGQRQLVCLARAILRKNQILIIDEATANVDPRTDELIQKKIREKFAHCTVLTIAHRLNTIIDSDKIMVLDSGRLKEYDEPYVLLQNKESLFYKMVQQLGKAEAAALTETAKQVYFKRNYPHIGHTDHMVTNTSNGQPSTLTIFETAL
IC50 of 6MP in MO7e cells with the C-terminal ABCC4 peptide [9]: 2.6 fold

B3: Biotinylated C-terminal ABCC4 peptide (biotin-[residues removed]-COOH) (peptide)
peptide: Biotin-GHTDHMVTNTSNGQPSTLTIFETAL-OH
modifications: not fully specified; printed as biotin-GHTDHMVTNTSNGQPSTLTIFETAL-COOH
notes: ABCC4, human, C-terminal 25 amino acids with the PDZ motif ETAL; Detected through Alexa Fluor 488 streptavidin in the TR-FRET assay; also called B-ABCC4; ABCC4-PDZ peptide; source: synthetic peptide
Kd [10]: ~511 nM

B4: ABCC4-PDZ peptide (carboxyl-terminal 15 amino acids of ABCC4) conjugated to the cell penetrating peptide TAT (peptide)
peptide: YGRKKRRQRRRSNGQPSTLTIFETAL
notes: cell penetrating HIV-TAT peptide; ABCC4, human, carboxyl-terminal 15 amino acids with the PDZ motif ETAL, free COOH; also called cell penetrating ABCC4-PDZ peptide; source: synthetic peptide
IC50 [11]: ~300 nM
